The values that follow come from patent US6835726B2, “Pyrimidine derivatives” (priority 1998, dated 2004).

In data set [1] the test system is recombinant human cytomegalovirus (HCMV). Nature of the data set: microbe, parasite or virus in culture. The data set is classed as cell-based. From the text: Certain preferred compounds and compositions are capable of specifically inhibiting or suppressing cytomegalovirus infection. For the assessment of activity against human CMV, a method was used which is similar to that described in Kohler, et al., J. Virol. 68:6589-6597 (1994). Briefly, a recombinant human cytomegalovirus (HCMV) was made containing a marker gene (luciferase) under the control of the promoter for the late 28 kDa viral structural phosphoprotein pp28. Human foreskin fibroblast (HFF) cells were infected with the recombinant HCMV virus (MOI 5), placed into 96-well plates, and cultured under standard cell-culture conditions. Compounds that were evaluated for anti-HCMV activity were added to the infected cells 1 hour later. The level of luciferase expression was measured 24 hours after treatment with the test compounds. […] As an additional control, the cytotoxicity of test compounds on untreated HFF cells was also evaluated in cultured cell growth experiments.

Where [2] appears, read: CMV assay, Table 2, read-out: Antiviral Activity.
Where [3] appears, read: CMV assay, Table 4, read-out: Antiviral Activity.
The mark [4] stands for this setting: CMV assay, Table 3, read-out: Antiviral Activity.

Like-named read-outs stand apart in the source and are kept apart here.

With `CCC(Nc1nc(C)c([N+](=O)[O-])c(-n2ccnc2C)n1)c1ccccc1` (centres unmarked), the IC50 in data set [1] (setting [2]) was 100 to 500 nM. For `CCc1nccn1-c1nc(NCc2c(F)cccc2Cl)nc(C)c1[N+](=O)[O-]`, the IC50 in data set [1] (setting [2]) was 100 to 500 nM. Take `Cc1nc(NCc2cc(F)ccc2F)nc(-n2ccnc2C)c1[N+](=O)[O-]`: the IC50 in data set [1] (setting [2]) was 100 to 500 nM. For `Cc1nc(NC2CCc3ccccc32)nc(-n2ccnc2C)c1[N+](=O)[O-]` (centres unmarked), the IC50 in data set [1] (setting [3]) was less than 100 nM. The same measure, in the same setting: with `Cc1nc(NC2CCCc3ccccc32)nc(-n2ccnc2C)c1[N+](=O)[O-]` (centres unmarked) the figure was 100 to 500 nM. Still for that read-out and setting: with `Cc1nc(N(C)C2CCc3ccccc32)nc(-n2ccnc2C)c1[N+](=O)[O-]` (centres unmarked) the figure was 100 to 500 nM; with `Cc1nc(NC2CCc3c(Cl)cccc32)nc(-n2ccnc2C)c1[N+](=O)[O-]` (centres unmarked), more than 500 nM; with `Cc1nc(NC2COc3ccccc32)nc(-n2ccnc2C)c1[N+](=O)[O-]` (centres unmarked), 100 to 500 nM.

As for `Cc1nc(NC2CCc3cc(F)c(F)cc32)nc(-n2ccnc2)c1[N+](=O)[O-]` (centres unmarked), the IC50 in data set [1] (setting [3]) lay in the range of 100 to 500 nM.

`CCc1nccn1-c1nc(NC2CCc3cc(F)c(F)cc32)nc(C)c1[N+](=O)[O-]` (centres unmarked): the IC50 in data set [1] (setting [3]) lay in the range of 100 to 500 nM. Same read-out and setting: the same measure for `Cc1nc(NC2CCc3cc(F)c(F)cc32)nc(-n2ccnc2C)c1[N+](=O)[O-]` (centres unmarked): 100 to 500 nM; for `CCc1nccn1-c1nc(NC2Cc3ccccc3C2)nc(C)c1[N+](=O)[O-]`: more than 500 nM. In the case of `Cc1nc(NC2CCc3c(F)ccc(F)c32)nc(-n2ccnc2)c1[N+](=O)[O-]` (centres unmarked), in data set [1] (setting [3]), the IC50 fell in the range of 100 to 500 nM.

For `Cc1nc(NC2CCc3c(F)ccc(F)c32)nc(-n2ccnc2C)c1[N+](=O)[O-]` (centres unmarked), in data set [1] (setting [3]), the IC50 is less than 100 nM. For `CCc1nccn1-c1nc(NC2CCc3c(F)ccc(F)c32)nc(C)c1[N+](=O)[O-]` (centres unmarked), the IC50 in data set [1] (setting [3]) was less than 100 nM.

Consider `Cc1nc(NC2CCc3c(F)cccc32)nc(-n2ccnc2)c1[N+](=O)[O-]` (centres unmarked), for which the IC50 in data set [1] (setting [3]) was in the range of 100 to 500 nM. Still for that read-out and setting: with `Cc1nc(NC2CCc3c(F)cccc32)nc(-n2ccnc2C)c1[N+](=O)[O-]` (centres unmarked) the figure was 100 to 500 nM; with `CCc1nccn1-c1nc(NC2CCc3c(F)cccc32)nc(C)c1[N+](=O)[O-]` (centres unmarked), 100 to 500 nM. Regarding `Cc1nc(NC2CCc3cc(Br)ccc32)nc(-n2ccnc2C)c1[N+](=O)[O-]` (centres unmarked), in data set [1] (setting [3]), the IC50 was 100 to 500 nM. Still for that read-out and setting: the same measure for `Cc1nc(NC2CCc3ccccc32)nc(-n2ccnc2)c1[N+](=O)[O-]` (centres unmarked): less than 100 nM; for `Cc1nc(NC2CCc3ccc(Cl)cc32)nc(-n2ccnc2C)c1[N+](=O)[O-]` (centres unmarked): 100 to 500 nM.

As for `Cc1nc(NC2CCc3cc(F)ccc32)nc(-n2ccnc2)c1[N+](=O)[O-]` (centres unmarked), in data set [1] (setting [3]), the IC50 was less than 100 nM.

With `Cc1nc(NC2CCc3cc(F)ccc32)nc(-n2ccnc2C)c1[N+](=O)[O-]` (centres unmarked), in data set [1] (setting [3]), the IC50 lay in the range of 100 to 500 nM. On the same count and under the same terms, with `COC1c2ccccc2CC1Nc1nc(C)c([N+](=O)[O-])c(-n2ccnc2)n1` (centres unmarked) the figure was more than 500 nM. `COC1c2ccccc2CC1Nc1nc(C)c([N+](=O)[O-])c(-n2ccnc2C)n1` (centres unmarked): the IC50 in data set [1] (setting [3]) is more than 500 nM. Take `CCc1nccn1-c1nc(NC2CCc3ccccc32)nc(C)c1[N+](=O)[O-]` (centres unmarked): in data set [1] (setting [3]), the IC50 was in the range of 100 to 500 nM.

For `Cc1nc(NC2Cc3ccccc3C2(C)C)nc(-n2ccnc2)c1[N+](=O)[O-]` (centres unmarked), the IC50 in data set [1] (setting [3]) was more than 500 nM. Still for that read-out and setting: the same measure for `Cc1nc(NC2Cc3ccccc3C2(C)C)nc(-n2ccnc2C)c1[N+](=O)[O-]` (centres unmarked): 100 to 500 nM. As for `Cc1nc(NC2Cc3ccccc3C2)nc(-n2ccnc2C)c1[N+](=O)[O-].Cl`, the melting point – broadly, the temperature, or range, at which the solid turns liquid – was in the range of 184 to 185 °C. Take `CC[C@H]1CCCC[C@H]1Nc1nc(C)c([N+](=O)[O-])c(-n2ccnc2)n1` (relative stereo): the melting point was in the range of 123 to 124 °C. In the case of `Cc1nc(NC2Cc3ccccc3C2)nc(-n2ccnc2C)c1[N+](=O)[O-]` [2-(2-indanamino)-4-(2-methylimidazol-1-yl)-6-methyl-5-nitropyrimidine], the melting point lay within 203 to 204 °C. The compound `Cc1nc(NC2Cc3ccccc3C2)nc(-n2ccnc2)c1[N+](=O)[O-]` [2-(2-indanamino)-4-imidazol-1-yl-6-methyl-5-nitropyriridine] returned a melting point of 177 to 178 °C. `CCc1nccn1-c1nc(NC2CCc3c(F)cc(F)cc32)nc(C)c1[N+](=O)[O-]` (centres unmarked) [2-(4,6-difluoro-1-indanamino)-4-(2-ethylimidazol-1-yl)-6-methyl-5-nitropyrimidine]: the melting point is 88 to 89 °C. As for `Cc1nc(NC2CCc3c(F)cc(F)cc32)nc(-n2ccnc2C)c1[N+](=O)[O-]` (centres unmarked) [2-(4,6-difluoro-1-indanamino)-4-(2-methylimidazol-1-yl)-6-methyl-5-nitropyrimidine], the melting point lay within 164 to 165 °C.

Take `Cc1nc(NC2CCc3c(F)cc(F)cc32)nc(-n2ccnc2)c1[N+](=O)[O-]` (centres unmarked) [2-(4,6-difluoro-1-indanamino)-4-(imidazol-1-yl)-6-methyl-5-nitropyrimidine]: the melting point was in the range of 175 to 176 °C. Consider `Cc1nc(OCCC(C)(C)C)nc(-n2ccnc2)c1[N+](=O)[O-]` [3,3-dimethyl-1-butyl/H/Me], for which the IC50 in data set [1] (setting [4]) was more than 500 nM. As to `Cc1nc(OCCC(C)(C)C)nc(-n2ccnc2C)c1[N+](=O)[O-]` [3,3-dimethyl-1-butyl/Me/Me], the IC50 in data set [1] (setting [4]) is more than 500 nM. With `COC(C)CCOc1nc(C)c([N+](=O)[O-])c(-n2ccnc2)n1` (centres unmarked) [3-methoxy-1-butyl/H/Me], in data set [1] (setting [4]), the IC50 was more than 500 nM. For `COC(C)CCOc1nc(C)c([N+](=O)[O-])c(-n2ccnc2C)n1` (centres unmarked) [3-methoxy-1-butyl/Me/Me], the IC50 in data set [1] (setting [4]) was more than 500 nM. Take `Cc1nc(OCc2ccccc2)nc(-n2ccnc2)c1[N+](=O)[O-]` [benzyl/H/Me]: the IC50 in data set [1] (setting [4]) was more than 500 nM. Still for that read-out and setting: with `CCOc1nc(C)c([N+](=O)[O-])c(-n2ccnc2C)n1` [ethyl/Me/Me] the figure was more than 500 nM. Consider `COc1nc(C)c([N+](=O)[O-])c(-n2ccnc2C)n1` [methyl/Me/Me], for which the IC50 in data set [1] (setting [4]) is more than 500 nM. The same measure, in the same setting: the same measure for `CCCCOc1nc(C)c([N+](=O)[O-])c(-n2ccnc2)n1` [n-butyl/H/Me]: more than 500 nM; for `CCCCOc1nc(C)c([N+](=O)[O-])c(-n2ccnc2C)n1` [n-butyl/Me/Me]: more than 500 nM. Still for that read-out and setting: with `CCCOc1nc(C)c([N+](=O)[O-])c(-n2ccnc2)n1` [n-propyl/H/Me] the figure was more than 500 nM; with `Cc1nc(OCCc2ccccc2)nc(-n2ccnc2)c1[N+](=O)[O-]` [phenethyl/H/Me], more than 500 nM.

As for `Cc1nc(N2CCN(Cc3ccccc3)CC2)nc(-n2ccnc2C)c1[N+](=O)[O-]` [u, 2-(4-benzylpiperazin-1-yl)-4-(2-methylimidazol-1-yl)-6-methyl-5-nitropyrimidine], the IC50 in data set [1] (Human betaherpesvirus 5, HFF, 24 h) was found to be 100 nM.
